# Data reported in article PMC6858451, “Rhesus Theta Defensin 1 Promotes Long Term Survival in Systemic Candidiasis by Host Directed Mechanisms” (Scientific Reports, 2019).
# Bridge positions count the residues as written; N and C are the ends. Peptide text beside a SMILES is read from it.
# Columns and labels:
# C. albicans SC5314 = experiment: MIC/MFC, broth microdilution (modified CLSI M27-A2); assay type: cell-based; conditions: Candida albicans
# Method: (§1) C. albicans strains were tested against RTD-1, fluconazole, and caspofungin in microdilution broth in accordance with Clinical and Laboratory Standards Institute (CLSI) document M27-A2 with the exception that 25 mM MOPS was used in place of 165 mM MOPS, as described previously. Overnight cultures were harvested by centrifugation, washed twice with Ca^2+ and Mg^2+-free PBS, pH 7.2, and suspended in test medium (RPMI 1640 medium, 25 mM MOPS, 2 mM L-glutamine) at 10^4 CFU/ml[62]. Incubations were conducted in flat bottom, 96-well microtiter plates (Greiner bio-one, Monroe, NC) containing 0.2 ml test medium per well. Duplicate 0.1 ml aliquots of serial two-fold dilutions of peptides and antifungal drugs were dispensed into wells, each of which was inoculated with 0.1 ml of fungal cell suspension containing 1 × 10^3 CFU. Plates were incubated at 30 °C for 48 hours after which A600 was determined using a SpectraMax M5e plate reader.
# (§2) Minimal fungicidal concentration (MFC) was determined by plating, on YPD plates, 10 µl from wells in MIC assay without cell growth and the first well with measurable turbidity as described[63]–[66] and corresponding aliquots from the no-agent controls. […] MFC is reported as the lowest concentration of peptide or antifungal drug that killed ≥99% of the input organisms.
# (§3) MICs and MFCs of RTD-1 were also performed in the presence of 50% mouse serum. Serum was prepared from blood collected by cardiac puncture from BALB/c mice. After coagulation at room temperature, serum was collected by centrifugation (200 g for 10 min followed by 23,000 g for 15 min), and diluted with an equal volume of yeast inoculum in MIC test medium described above.
# C. albicans 53264 = experiment: as above; assay type: cell-based
# Method: as §1, §2, §3
# C. albicans 43001 = experiment: as above; assay type: cell-based
# Method: as §1, §2, §3
# [1] = tested on: C. albicans 53264 biofilms; experiment: Biofilm XTT metabolic assay; assay type: cell-based; conditions: pre-adhesion, 2 h adherent and 24 h mature biofilms
# Method: The antifungal activities of RTD-1, caspofungin and fluconazole were evaluated against biofilms of C. albicans SC5314 and 53264 essentially as described by Pierce et al.[67]. Briefly, biofilms established for 0 h (preadhesion), 2 h (adherent), or 24 h (mature) were developed by adding 1 × 10^5 yeast cells in 50 or 100 µl of RPMI-1640 to wells of flat-bottom 96-well microtiter plates (Costar, Corning, NY). Fifty or 100 µl aliquots of serial 2-fold dilutions of peptide or antifungal drugs were added to wells in triplicate and incubated for 24 h or 48 h prior to analysis of biofilm metabolic activities. Concentrations of reagents used were as follows: RTD-1 - 0.09 – 100 µg/ml (0.05–48 µM), Fluco – 1–250 µg/ml (3.3–816.3 µM); Caspo- 0.003–8 µg/ml ([…]–7.3 µM). Analysis of the effect of each agent on Candida biofilms was performed using an XTT colorimetric assay. One hundred µl of 1 µM XTT/menadione added to each biofilm well, plates were incubated in the dark for 3 h at 37 °C, and 80 µl of supernatant was transferred to a new 96-well flat-bottom microtiter plate (Greiner Bio-one, Monroe, NC). Absorbance was measured at 490 nm on a SpectraMax® i3x (Molecular Devices). Readings were plotted as average of triplicates after subtracting the corresponding values for negative controls (XTT/menadione only).
# [2] = tested on: C. albicans SC5314, 43001 and 53264; experiment: MIC/MFC, summary statements over the three strains; assay type: cell-based
# Method: as §1
# Minimal fungicidal concentration (MFC) was determined by plating, on YPD plates, 10 µl from wells in MIC assay without cell growth and the first well with measurable turbidity as described[63]–[66] and corresponding aliquots from the no-agent controls. Under MIC incubation conditions, no filamentation occurred allowing for accurate CFU counts after plating on YPD plates which were incubated for 24 h at 30 °C. […]
# [3] = cited from earlier work
# [4] = RTD-1 plasma pharmacokinetics
# Method: RTD-1 plasma levels were also analyzed 60 or 240 min after additional daily 5 mg/kg i.p. doses administered up to 6 days.
# Single dose PK of RTD-1 was evaluated by quantifying plasma peptide concentrations at intervals following 5 mg/kg bolus injections administered i.v. and i.p. to CD-1 mice. At indicated intervals, plasma was prepared from EDTA-anticoagulated blood collected aseptically by terminal cardiac puncture. Plasma was diluted 1:10 or 1:20 into 5% formic/5% acetonitrile. RTD-1 plasma concentrations were determined by reverse-phase liquid chromatography (XBridge phenyl 3.5 µm column, Waters) on an Acquity H-Class UPLC (Waters) with tandem electrospray mass spectroscopy on a Xevo TQ-S running MassLynx V4.1 (Waters). Quantitative mass spectroscopy was performed by multiple-reaction monitoring transition 417.38 > 517.14, with area under the curve determined by TargetLynx (Waters). Pharmacokinetic modeling of intravenous RTD-1 concentration-time data was performed with ADAPT (version 5) software using the naïve pooled data approach. One- and two-compartment models were evaluated. Model selection was based on the Akaike information criterion (AIC) and the Bayesian information criterion (BIC) scores, the likelihood ratio test (LRT), and goodness-of-fit plots. […] Area under the curve (AUC24) was calculated by taking the average of RTD-1 concentrations at each time point and applying the linear trapezoidal method. Bioavailability (F) for i.p. injection was determined using the ratio of AUCs from i.p. and i.v.
# [5] = 5 mg/kg i.v., two-compartment model, mean
structure (smiles),measurement,setting,value
"CC[C@H](C)C[C@H](C)CCCCCCCCC(=O)N[C@H]1C[C@@H](O)[C@@H](NCCN)NC(=O)[C@@H]2[C@@H](O)CCN2C(=O)[C@H]([C@H](O)CCN)NC(=O)[C@H]([C@H](O)[C@@H](O)c2ccc(O)cc2)NC(=O)[C@@H]2C[C@@H](O)CN2C(=O)[C@H]([C@@H](C)O)NC1=O [Caspo, caspofungin]",MIC,"C. albicans SC5314; RPMI 1640, 25 mM MOPS, 2 mM L-glutamine, 1 × 10^3 CFU/well, 30 °C, 48 h, A600, complete inhibition of growth, duplicate",0.06 µg/mL
same,MFC,"C. albicans SC5314; RPMI, plating of MIC wells on YPD, ≥99% killing of input inoculum",0.25 µg/mL
same,MIC,"C. albicans 53264; Candida albicans, 53264, RPMI 1640, 25 mM MOPS, 2 mM L-glutamine, 1 × 10^3 CFU/well, 30 °C, 48 h, A600, complete inhibition of growth, duplicate, read-out: MIC",> 8 µg/mL
same,MFC,"C. albicans 53264; Candida albicans, 53264, RPMI, plating of MIC wells on YPD, ≥99% killing of input inoculum",> 8 µg/mL
same,resistance relative to drug sensitive SC5314,"C. albicans 53264; strain 53264 vs SC5314, RPMI",> 133 fold
same,MIC,"C. albicans 43001; Candida albicans, 43001, RPMI 1640, 25 mM MOPS, 2 mM L-glutamine, 1 × 10^3 CFU/well, 30 °C, 48 h, A600, complete inhibition of growth, duplicate, read-out: MIC",2 µg/mL
same,MFC,"C. albicans 43001; Candida albicans, 43001, RPMI, plating of MIC wells on YPD, ≥99% killing of input inoculum",2 µg/mL
same,resistance relative to drug sensitive SC5314,"C. albicans 43001; strain 43001 vs SC5314, RPMI",33 fold
"CC[C@H](C)[C@@H]1NC(=O)[C@@H]2CSSC[C@H](NC(=O)[C@H](CCCNC(=N)N)NC(=O)[C@@H]3CSSC[C@H](NC1=O)C(=O)N[C@@H]([C@@H](C)O)C(=O)N[C@@H](CCCNC(=N)N)C(=O)NCC(=O)N[C@@H](Cc1ccccc1)C(=O)N3)C(=O)N[C@@H](CC(C)C)C(=O)N[C@H]1CSSC[C@H](NC(=O)[C@H](C(C)C)NC(=O)CNC(=O)[C@H](CCCNC(=N)N)NC(=O)[C@H](CCCNC(=N)N)NC1=O)C(=O)N[C@@H](CCCNC(=N)N)C(=O)N2 [RTD-1, Rhesus theta (θ) defensin-1] (cyclo(GFCRCLCRRGVCRCICTR); disulfide 3-16, 5-14, 7-12 (inferred); ring closure inferred)",biofilm inhibition (XTT),[1],inhibited biofilm formation
same,MFCs as multiple of the MICs,[2]; RPMI,1–2 × the MICs
same,antifungal activity against blastospores in 50% mouse serum,[2]; peptide concentrations up to 100 µg/ml,inactive
same,stability in serum and plasma,[3],highly stable
same,"CLd, distributional clearance",[4]; [5],3.248 mL/h
same,"K10, elimination rate constant from the central compartment",[4]; [5],0.9719 h⁻¹
same,"T1/2-λ1, distribution half-life",[4]; [5],0.5676 h
same,"Vc, central volume of distribution",[4]; [5],14.58 mL
same,"Vp, peripheral volume",[4]; [5],24.88 mL
same,"λ1, distribution rate constant",[4]; [5],1.221 h⁻¹
same,"λ2, terminal rate constant",[4]; [5],0.1039 h⁻¹
same,accumulation in plasma,"[4]; daily 5 mg/kg i.p. doses up to 6 days, levels 60 or 240 min after dose",did not accumulate in plasma
same,Cmax,"[4]; mouse, in vivo, ip, 5 mg/kg",670 ng/mL
same,Tmax,"[4]; mouse, in vivo, ip, 5 mg/kg",4 h
same,bioavailability,"[4]; mouse, in vivo, ip, 5 mg/kg",63.4%
same,clearance,"[4]; mouse, in vivo, iv, 5 mg/kg",0.236 mL/min
same,half-life,"[4]; mouse, in vivo, iv, 5 mg/kg",6.67 h
